Laboratory results reported in patent US11130756B2, “[1,2,4]Triazolo[4,3-A]pyridinyl substituted indole compounds” (BRISTOL-MYERS SQUIBB COMPANY, priority 2017, dated 2021).

Columns and labels:
Format in all cases: cell-based
human TLR7 = molecular target: T1, human TLR7 (Homo sapiens, UniProt Q9NYK1); assay: TLR7 inhibition reporter assay (HEK-Blue, SEAP); conditions: HEK-Blue cells overexpressing human TLR7, gardiquimod 7.5 μM, 22 hour incubation
T1 construct: host or cells: HEK-Blue cells
T1 sequence (Q9NYK1 27-1049): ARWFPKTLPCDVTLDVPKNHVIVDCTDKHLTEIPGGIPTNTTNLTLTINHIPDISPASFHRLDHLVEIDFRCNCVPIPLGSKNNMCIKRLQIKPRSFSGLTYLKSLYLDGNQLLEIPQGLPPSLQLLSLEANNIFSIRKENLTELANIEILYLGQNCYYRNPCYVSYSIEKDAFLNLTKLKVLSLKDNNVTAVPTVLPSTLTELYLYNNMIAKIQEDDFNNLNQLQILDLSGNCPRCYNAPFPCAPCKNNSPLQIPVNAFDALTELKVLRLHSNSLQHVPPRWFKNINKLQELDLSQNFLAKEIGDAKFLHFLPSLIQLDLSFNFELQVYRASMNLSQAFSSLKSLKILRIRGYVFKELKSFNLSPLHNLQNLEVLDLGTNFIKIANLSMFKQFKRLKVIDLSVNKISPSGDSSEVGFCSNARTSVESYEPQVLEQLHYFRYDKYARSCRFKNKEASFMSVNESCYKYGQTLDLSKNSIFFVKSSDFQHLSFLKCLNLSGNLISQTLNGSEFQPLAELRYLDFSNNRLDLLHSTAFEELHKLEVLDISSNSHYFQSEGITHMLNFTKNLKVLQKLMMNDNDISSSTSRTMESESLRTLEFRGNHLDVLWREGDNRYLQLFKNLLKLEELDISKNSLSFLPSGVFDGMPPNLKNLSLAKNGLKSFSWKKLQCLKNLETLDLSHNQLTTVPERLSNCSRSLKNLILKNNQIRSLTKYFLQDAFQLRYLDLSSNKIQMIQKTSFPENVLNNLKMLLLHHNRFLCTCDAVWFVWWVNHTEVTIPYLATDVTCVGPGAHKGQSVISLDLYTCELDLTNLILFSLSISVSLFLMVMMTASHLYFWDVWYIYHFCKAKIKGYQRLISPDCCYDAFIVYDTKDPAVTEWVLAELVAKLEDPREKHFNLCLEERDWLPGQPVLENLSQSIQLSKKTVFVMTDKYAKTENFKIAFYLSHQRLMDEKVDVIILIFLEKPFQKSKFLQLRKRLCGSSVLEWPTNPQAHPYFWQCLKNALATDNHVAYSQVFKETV
Procedure: (§1) TLR7/8/9 Inhibition Reporter Assays
(§2) HEK-Blue™-cells (Invivogen) overexpressing human TLR7, TLR8 or TLR9 receptors were used for screening inhibitors of these receptors using an inducible SEAP (secreted embryonic alkaline phosphatase) reporter gene under the control of the IFN-β minimal promoter fused to five NF-κB and AP-1-binding sites. Briefly, cells are seeded into Greiner 384 well plates (15000 cells per well for TLR7, 20,000 for TLR8 and 25,000 for TLR9) and then treated with test compounds in DMSO to yield a final dose response concentration range of 0.05 nM-50 μM. After a 30 minute compound pre-treatment at room temperature, the cells are then stimulated with a TLR7 ligand (gardiquimod at a final concentration of 7.5 μM), TLR8 ligand (R848 at a final concentration of 15.9 μM) or TLR9 ligand (ODN2006 at a final concentration of 5 nM) to activate NF-κB and AP-1 which induce the production of SEAP. After a 22 hour incubation at 37° C., 5% CO2, SEAP levels are determined with the addition of HEK-Blue™ Detection reagent (Invivogen), a cell culture medium that allows for detection of SEAP, according to manufacturer's specifications. The percent inhibition is determined as the % reduction in the HEK-Blue signal present in wells treated with agonist plus DMSO alone compared to wells treated with a known inhibitor.

human TLR8 = molecular target: T2, human TLR8 (Homo sapiens, UniProt Q9NR97); assay: TLR8 inhibition reporter assay (HEK-Blue, SEAP); conditions: HEK-Blue cells overexpressing human TLR8, R848 15.9 μM, 22 hour incubation
T2 construct: host or cells: HEK-Blue cells
T2 sequence (Q9NR97 27-1041): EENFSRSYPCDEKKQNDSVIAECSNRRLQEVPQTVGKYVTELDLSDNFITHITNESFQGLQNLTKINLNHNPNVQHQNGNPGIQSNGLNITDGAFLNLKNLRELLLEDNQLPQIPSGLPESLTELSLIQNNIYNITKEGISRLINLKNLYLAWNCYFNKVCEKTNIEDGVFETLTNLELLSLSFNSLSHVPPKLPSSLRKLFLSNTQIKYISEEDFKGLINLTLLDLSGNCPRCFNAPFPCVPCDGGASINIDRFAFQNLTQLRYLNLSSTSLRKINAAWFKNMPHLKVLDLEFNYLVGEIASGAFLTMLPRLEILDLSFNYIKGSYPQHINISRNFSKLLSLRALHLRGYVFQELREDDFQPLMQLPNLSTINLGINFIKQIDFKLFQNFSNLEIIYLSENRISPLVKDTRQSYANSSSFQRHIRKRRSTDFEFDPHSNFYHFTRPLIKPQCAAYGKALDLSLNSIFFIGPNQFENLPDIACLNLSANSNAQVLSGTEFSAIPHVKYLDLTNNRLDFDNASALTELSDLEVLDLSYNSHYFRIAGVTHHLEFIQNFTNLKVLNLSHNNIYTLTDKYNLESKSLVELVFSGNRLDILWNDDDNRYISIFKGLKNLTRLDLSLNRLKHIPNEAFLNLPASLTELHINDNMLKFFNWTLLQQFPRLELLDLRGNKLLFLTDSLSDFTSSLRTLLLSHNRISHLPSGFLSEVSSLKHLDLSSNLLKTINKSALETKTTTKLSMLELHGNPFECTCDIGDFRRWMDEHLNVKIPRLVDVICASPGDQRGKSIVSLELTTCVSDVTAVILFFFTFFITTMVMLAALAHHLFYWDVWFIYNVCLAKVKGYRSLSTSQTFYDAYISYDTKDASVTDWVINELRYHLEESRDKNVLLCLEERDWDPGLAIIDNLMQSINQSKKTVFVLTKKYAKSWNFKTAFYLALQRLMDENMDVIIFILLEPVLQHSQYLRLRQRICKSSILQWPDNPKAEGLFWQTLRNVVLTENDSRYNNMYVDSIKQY
Procedure: as §1, §2

human TLR9 = molecular target: T3, human TLR9 (Homo sapiens, UniProt Q9NR96); assay: TLR9 inhibition reporter assay (HEK-Blue, SEAP); conditions: HEK-Blue cells overexpressing human TLR9, ODN2006 5 nM, 22 hour incubation
T3 construct: host or cells: HEK-Blue cells
T3 sequence (Q9NR96 26-1032): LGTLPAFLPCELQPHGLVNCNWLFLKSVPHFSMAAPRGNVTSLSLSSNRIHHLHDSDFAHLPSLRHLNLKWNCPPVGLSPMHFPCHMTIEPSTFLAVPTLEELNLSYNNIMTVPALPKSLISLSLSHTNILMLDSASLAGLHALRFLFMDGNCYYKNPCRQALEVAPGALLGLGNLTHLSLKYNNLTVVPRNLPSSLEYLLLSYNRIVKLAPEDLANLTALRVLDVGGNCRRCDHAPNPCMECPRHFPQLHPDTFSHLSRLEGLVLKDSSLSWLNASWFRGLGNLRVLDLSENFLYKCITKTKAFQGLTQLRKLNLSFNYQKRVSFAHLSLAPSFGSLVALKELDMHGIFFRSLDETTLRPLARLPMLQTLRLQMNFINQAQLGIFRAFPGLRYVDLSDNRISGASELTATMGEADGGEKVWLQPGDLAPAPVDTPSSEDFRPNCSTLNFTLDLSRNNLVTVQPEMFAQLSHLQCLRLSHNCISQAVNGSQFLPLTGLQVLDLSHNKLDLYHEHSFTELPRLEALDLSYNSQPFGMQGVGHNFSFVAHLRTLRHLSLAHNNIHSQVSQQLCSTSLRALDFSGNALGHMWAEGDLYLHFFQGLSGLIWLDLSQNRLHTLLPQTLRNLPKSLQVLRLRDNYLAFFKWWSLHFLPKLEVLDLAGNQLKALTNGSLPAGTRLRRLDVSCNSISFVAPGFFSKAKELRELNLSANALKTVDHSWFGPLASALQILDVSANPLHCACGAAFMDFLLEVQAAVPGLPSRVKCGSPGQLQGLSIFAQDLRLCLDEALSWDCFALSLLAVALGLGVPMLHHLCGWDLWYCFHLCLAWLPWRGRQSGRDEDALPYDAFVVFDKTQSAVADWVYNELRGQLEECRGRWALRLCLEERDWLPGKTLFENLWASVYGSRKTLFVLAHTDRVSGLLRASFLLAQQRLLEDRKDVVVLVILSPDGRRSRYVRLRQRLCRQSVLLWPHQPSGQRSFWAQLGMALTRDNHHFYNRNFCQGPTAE
Procedure: as §1, §2

Row | SMILES | IC50 (human TLR7) | IC50 (human TLR8) | IC50 (human TLR9)
1 | CC(C)c1c(-c2ccc3nncn3c2)[nH]c2ccc(C3CCN(CC(=O)N(C)C)CC3)cc12 [Example 14, 2-(4-(2-([1,2,4]triazolo[4,3-a]pyridin-6-yl)-3-isopropyl-1H-indol-5-yl)piperidin-1-yl)-N,N-dimethylacetamide] | 31.8 nM | 308 nM | 222 nM
2 | CNC(=O)CN1CCC(c2ccc3[nH]c(-c4cc(C)c5nncn5c4)c(C(C)C)c3c2)CC1 [Example 16, 2-(4-(3-isopropyl-2-(8-methyl-[1,2,4]triazolo[4,3-a]pyridin-6-yl)-1H-indol-5-yl)piperidin-1-yl)-N-methylacetamide] | 2 nM | 10.2 nM | 2520 nM
3 | Cc1cc2nncn2cc1-c1[nH]c2ccc(C3CCN(CC(=O)N(C)C)CC3)cc2c1C(C)C [Example 18, 2-(4-(3-isopropyl-2-(7-methyl-[1,2,4]triazolo[4,3-a]pyridin-6-yl)-1H-indol-5-yl)piperidin-1-yl)-N,N-dimethylacetamide] | 65.9 nM | 715 nM | 685 nM
4 | Cc1cc(-c2[nH]c3ccc(C4CCN(Cc5ncn(C)n5)CC4)cc3c2C(C)C)cn2cnnc12 [Example 21, 6-(3-isopropyl-5-(1-((1-methyl-1H-1,2,4-triazol-3-yl)methyl)piperidin-4-yl)-1H-indol-2-yl)-8-methyl-[1,2,4]triazolo[4,3-a]pyridine] | 3.9 nM | 10.1 nM | 4670 nM
5 | CC(C)c1c(-c2ccc3nncn3c2)[nH]c2ccc(C3CCN(Cc4ncn(C)n4)CC3)cc12 [Example 23, 6-(3-isopropyl-5-(1-((1-methyl-1H-1,2,4-triazol-3-yl)methyl)piperidin-4-yl)-1H-indol-2-yl)-[1,2,4]triazolo[4,3-a]pyridine] | 54.9 nM | 375 nM | ≥ 50000 nM
6 | CNC(=O)CN1CCC(c2ccc3[nH]c(-c4ccc5nncn5c4C)c(C(C)C)c3c2)CC1 [Example 24, 2-(4-(3-isopropyl-2-(5-methyl-[1,2,4]triazolo[4,3-a]pyridin-6-yl)-1H-indol-5-yl)piperidin-1-yl)-N-methylacetamide] | 40.8 nM | 31.9 nM | 8930 nM

Continued by falling IC50 (human TLR7), values first:

Row | IC50 (human TLR7) | IC50 (human TLR8) | IC50 (human TLR9) | SMILES
7 | 136 nM | 17.6 nM | ≥ 50000 nM | Cc1nnc2ccc(-c3[nH]c4ccc(C5CCN(Cc6ncn(C)n6)CC5)cc4c3C(C)C)cn12 [Example 22, 6-(3-isopropyl-5-(1-((1-methyl-1H-1,2,4-triazol-3-yl)methyl)piperidin-4-yl)-1H-indol-2-yl)-3-methyl-[1,2,4]triazolo[4,3-a]pyridine]
8 | 69.6 nM | 408 nM | 19600 nM | Cc1cc2nncn2cc1-c1[nH]c2ccc(C3CCN(Cc4ncn(C)n4)CC3)cc2c1C(C)C [Example 20, 6-(3-isopropyl-5-(1-((1-methyl-1H-1,2,4-triazol-3-yl)methyl)piperidin-4-yl)-1H-indol-2-yl)-7-methyl-[1,2,4] triazolo[4,3-a]pyridine]
9 | 48.6 nM | 29.6 nM | 1660 nM | Cc1nnc2ccc(-c3[nH]c4ccc(C5CCN(CC(=O)N(C)C)CC5)cc4c3C(C)C)cn12 [Example 19, 2-(4-(3-isopropyl-2-(3-methyl-[1,2,4]triazolo[4,3-a]pyridin-6-yl)-1H-indol-5-yl)piperidin-1-yl)-N,N-dimethylacetamide]
10 | 44.7 nM | 31.4 nM | 2770 nM | CNC(=O)CN1CCC(c2ccc3[nH]c(-c4ccc5nnc(C)n5c4)c(C(C)C)c3c2)CC1 [Example 17, 2-(4-(3-isopropyl-2-(3-methyl-[1,2,4]triazolo[4,3-a]pyridin-6-yl)-1H-indol-5-yl)piperidin-1-yl)-N-methylacetamide]
11 | 15 nM | 245 nM | 1100 nM | CNC(=O)CN1CCC(c2ccc3[nH]c(-c4cn5cnnc5cc4C)c(C(C)C)c3c2)CC1 [Example 15, 2-(4-(3-isopropyl-2-(7-methyl-[1,2,4]triazolo[4,3-a]pyridin-6-yl)-1H-indol-5-yl)piperidin-1-yl)-N-methylacetamide]
12 | 6.8 nM | 98 nM | 1110 nM | CNC(=O)CN1CCC(c2ccc3[nH]c(-c4ccc5nncn5c4)c(C(C)C)c3c2)CC1 [Example 13, 2-(4-(2-([1,2,4]triazolo[4,3-a]pyridin-6-yl)-3-isopropyl-1H-indol-5-yl)piperidin-1-yl)-N-methylacetamide]
